Laboratory results published in US5370770A, “Method for deinking printed waste paper using soybean peroxidase” (priority 1992, dated 1994).

Assays:
[1] = target: Soybean Peroxidase (SBP) (Glycine max, UniProt O22443); experiment: Oxidation of methoxybenzene substrates by soybean peroxidase (redox potential comparison); format: biochemical; settings: absorbance change at substrate λmax
From the text: (§1) Any of a variety of peroxidases can be used in the present invention.
(§2) *all values in Δ Abs/(mg enzymemin).
**curve of ΔAbs/time slopes upward as reaction proceeds.

[2] = Half-wave redox potential of substrates; format: physicochemical; settings: redox potential of substrate
[3] = target: T1, Horseradish Peroxidase (HRP) (Armoracia rusticana, UniProt P00433); experiment: Oxidation of methoxybenzene substrates by horseradish peroxidase (redox potential comparison); format: biochemical; settings: absorbance change at substrate λmax
T1 sequence (P00433 31-353): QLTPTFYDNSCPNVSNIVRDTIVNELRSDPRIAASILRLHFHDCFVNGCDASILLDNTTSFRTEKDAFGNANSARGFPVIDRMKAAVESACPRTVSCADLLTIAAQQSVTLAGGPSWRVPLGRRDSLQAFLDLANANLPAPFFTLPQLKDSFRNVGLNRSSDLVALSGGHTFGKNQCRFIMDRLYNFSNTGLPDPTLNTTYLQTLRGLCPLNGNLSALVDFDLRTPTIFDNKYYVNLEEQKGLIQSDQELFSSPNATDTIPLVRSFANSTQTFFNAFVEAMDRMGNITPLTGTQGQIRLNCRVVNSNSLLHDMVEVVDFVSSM
From the text: as §1, §2

Soybean Peroxidase (SBP), sequence (O22443 27-332): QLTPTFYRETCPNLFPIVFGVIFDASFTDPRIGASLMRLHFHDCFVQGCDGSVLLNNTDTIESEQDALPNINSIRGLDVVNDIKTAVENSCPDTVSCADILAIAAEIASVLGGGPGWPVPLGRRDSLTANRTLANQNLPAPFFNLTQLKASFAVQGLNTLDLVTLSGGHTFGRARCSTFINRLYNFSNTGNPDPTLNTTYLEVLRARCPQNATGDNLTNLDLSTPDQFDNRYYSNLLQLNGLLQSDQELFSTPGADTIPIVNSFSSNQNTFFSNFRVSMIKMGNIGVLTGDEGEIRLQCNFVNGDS

## COc1cc(OC)c(OC)c(OC)c1 [1,2,3,5-tetramethoxybenzene]
[1]
  SBP: 3.02 Δ Abs/(mg enzymemin)
[2]
  E1/2 (V): 1.09 V
[3]
  HRP: 0.30 Δ Abs/(mg enzymemin)

## COc1ccc(OC)c(OC)c1 [1,2,4-trimethoxybenzene]
[1]
  SBP: 9.23 Δ Abs/(mg enzymemin)
[2]
  E1/2 (V): 1.12 V
[3]
  HRP: 1.64 Δ Abs/(mg enzymemin)

## COc1ccc(OC)cc1 [1,4-dimethoxybenzene]
[1]
  SBP: 0.072 Δ Abs/(mg enzymemin)
[2]
  E1/2 (V): 1.34 V
[3]
  HRP: 0 Δ Abs/(mg enzymemin)

## COc1c(OC)c(OC)c(OC)c(OC)c1OC [hexamethoxybenzene]
[1]
  SBP: 0.22 Δ Abs/(mg enzymemin)
[2]
  E1/2 (V): 1.24 V
[3]
  HRP: 0 Δ Abs/(mg enzymemin)

## COc1cc(OC)c(OC)c(OC)c1OC [pentamethoxybenzene]
[1]
  SBP: 8.76 Δ Abs/(mg enzymemin)
[2]
  E1/2 (V): 1.07 V
[3]
  HRP: 2.50 Δ Abs/(mg enzymemin)
